# Patent US9694016B2 (Novartis AG, priority 2013, dated 2017)
# Read-outs that look alike come from different tables or passages of the source.
# Molecular target: b-Raf (V600E) (Homo sapiens (Human), UniProt P15056, V600E)
# Details: read-out: b-Raf IC-50, AlphaScreen
# [1] = 60 min pre-incubation, 3 hours reaction
# [2] = 60 min pre-incubation, reaction 3 hours at room temperature
# Sequence of b-Raf (V600E) (P15056 whole entry V600E): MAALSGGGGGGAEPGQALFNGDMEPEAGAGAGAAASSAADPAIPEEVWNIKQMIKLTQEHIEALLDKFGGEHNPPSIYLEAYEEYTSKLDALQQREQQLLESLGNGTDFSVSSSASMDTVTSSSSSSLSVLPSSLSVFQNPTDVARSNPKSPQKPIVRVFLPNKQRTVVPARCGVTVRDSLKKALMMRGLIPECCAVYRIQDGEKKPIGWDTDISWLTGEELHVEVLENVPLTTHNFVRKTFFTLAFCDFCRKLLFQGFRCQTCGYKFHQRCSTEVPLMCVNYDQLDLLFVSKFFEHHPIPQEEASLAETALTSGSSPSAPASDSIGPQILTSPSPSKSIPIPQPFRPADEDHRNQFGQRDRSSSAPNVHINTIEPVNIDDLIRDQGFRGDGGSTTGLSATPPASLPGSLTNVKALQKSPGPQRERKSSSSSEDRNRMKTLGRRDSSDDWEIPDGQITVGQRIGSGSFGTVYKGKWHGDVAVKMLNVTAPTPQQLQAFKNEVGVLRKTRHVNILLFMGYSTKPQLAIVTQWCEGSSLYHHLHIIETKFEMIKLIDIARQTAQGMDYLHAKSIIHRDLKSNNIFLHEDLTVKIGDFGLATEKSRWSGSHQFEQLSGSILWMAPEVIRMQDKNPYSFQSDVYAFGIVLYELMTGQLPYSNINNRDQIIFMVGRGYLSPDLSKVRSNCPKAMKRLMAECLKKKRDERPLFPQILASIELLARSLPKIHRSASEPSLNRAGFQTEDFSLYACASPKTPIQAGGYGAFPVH
IC50 [1] [nM],IC50 [2] [nM],SMILES,also measured
4.5,–,"Cc1ccc(C(=O)Nc2cccc(C(C)(C)C#N)c2)cc1-c1cc(N2CCOCC2)n(C)c(=O)c1 [Example 515, N-(3-(2-cyanopropan-2-yl)phenyl)-4-methyl-3-(1-methyl-6-morpholino-2-oxo-1,2-dihydropyridin-4-yl)benzamide]",–
19,–,"Cc1ncc(NC(=O)c2ccnc(C(C)(C)C#N)c2)cc1-c1cc(N2CCOCC2)nc(N[C@H](C)CO)n1 [Example 747, (R)-2-(2-cyanopropan-2-yl)-N-(5-(2-((1-hydroxypropan-2-yl)amino)-6-morpholinopyrimidin-4-yl)-6-methylpyridin-3-yl)isonicotinamide]",–
–,8.1,"Cc1ncc(NC(=O)c2ccnc(C(C)C)c2)cc1-c1cc(N2CCOCC2)c2nccn2c1 [Example 882, 2-isopropyl-N-(6-methyl-5-(8-morpholinoimidazo[1,2-a]pyridin-6-yl)pyridin-3-yl)isonicotinamide]",–
2.8,–,"COCCN(C)c1cc(C(=O)Nc2ccc(C)c(-c3cc(N4CCOCC4)c(=O)n(C)c3)c2)ccn1 [Example 455, 2-((2-methoxyethyl)(methyl)amino)-N-(4-methyl-3-(1-methyl-5-morpholino-6-oxo-1,6-dihydropyridin-3-yl)phenyl)isonicotinamide]",–
–,2.5,"Cc1ccc(NC(=O)c2ccnc(C(C)(C)C#N)c2)cc1-c1nc(N2CCOCC2)c2c(cnn2C)n1 [Example 861, 2-(2-cyanopropan-2-yl)-N-(4-methyl-3-(1-methyl-7-morpholino-1H-pyrazolo[4,3-d]pyrimidin-5-yl)phenyl)isonicotinamide]",–
–,6.43,"Cc1ncc(NC(=O)c2ccnc(C(C)C)c2)cc1-c1cc(N2CCOCC2)nc(N2CC(O)C2)c1 [Example 1081, N-(2′-(3-hydroxyazetidin-1-yl)-2-methyl-6′-morpholino-[3,4′-bipyridin]-5-yl)-2-isopropylisonicotinamide]",–
1.7,–,"Cc1ccc(NC(=O)c2ccnc(C(C)(C)C#N)c2)cc1-c1cc(N2CCOCC2)c2nccn2n1 [Example 844, 2-(2-cyanopropan-2-yl)-N-(4-methyl-3-(8-morpholinoimidazo[1,2-b]pyridazin-6-yl)phenyl)isonicotinamide]",–
–,14.3,"Cc1ncc(NC(=O)c2ccnc(C(C)(F)F)c2)cc1-c1cc(NCCO)nc(N2CCOC[C@H]2C)c1 [Example 1139, (R)-2-(1,1-difluoroethyl)-N-(2′-((2-hydroxyethyl)amino)-2-methyl-6′-(3-methylmorpholino)-[3,4′-bipyridin]-5-yl)isonicotinamide]",–
–,9.66,"Cc1ncc(NC(=O)c2cccc(C(F)(F)F)c2)cc1-c1cnc(CC2(O)CCOCC2)c(N2CCOCC2)c1 [Example 993, N-(6′-((4-hydroxytetrahydro-2H-pyran-4-yl)methyl)-2-methyl-5′-morpholino-[3,3′-bipyridin]-5-yl)-3-(trifluoromethyl)benzamide]",–

# The next lines start with the compound.
SMILES,IC50 [1] [nM],IC50 [2] [nM],also measured
"Cc1ncc(NC(=O)c2cccc(C(F)(F)F)c2)cc1-c1cc(N2CCOCC2)nc(NCCO)n1 [Example 735, N-(5-(2-((2-hydroxyethyl)amino)-6-morpholinopyrimidin-4-yl)-6-methylpyridin-3-yl)-3-(trifluoromethyl)benzamide]",4.3,–,–
"Cc1ncc(NC(=O)c2ccnc(C3(C#N)CC3)c2)cc1-c1cnc(Cl)c(N2CCOCC2)c1 [Example 288, N-(6′-chloro-2-methyl-5-morpholino-[3,3′-bipyridin]-5-yl)-2-(1-cyanocyclopropyl)isonicotinamide]",–,–,"IC50 (Table 2, 3 hours reaction): 6 nM"
"CCC(F)(F)c1cc(C(=O)Nc2cnc(C)c(-c3cnc(OC(F)F)c(N4CCOCC4)c3)c2)ccn1 [Example 983, N-(6′-(difluoromethoxy)-2-methyl-5-morpholino-[3,3′-bipyridin]-5-yl)-2-(1,1-difluoropropyl)isonicotinamide]",–,2.99,–
Cc1ccc(NC(=O)c2ccnc(C(C)(F)F)c2)cc1-c1cc(C2COCCO2)nc(N2CCOCC2)c1 (stereo not shown) [Example 1145],–,1.3,–
"CNC(=O)c1ncc(-c2cc(NC(=O)c3ccnc(C(C)(F)F)c3)ccc2C)cc1N1CCOCC1 [Example 987, 5-(5-(2-(1,1-difluoroethyl)isonicotinamido)-2-methylphenyl)-N-methyl-3-morpholinopicolinamide]",–,2.63,–
Cc1ncc(NC(=O)c2cccc(C(F)(F)F)c2)cc1-c1cnc(OC2COC2)c(N2CCOCC2)c1 [Example 315],–,–,"IC50 (Table 2, 3 hours reaction): 0.8 nM"
"Cc1nn(C)cc1C(=O)Nc1cnc(C)c(-c2cc(N3CCOCC3)c(=O)n(C)c2)c1 [Example 374, N-(1′,2-dimethyl-5′-morpholino-6′-oxo-1′,6′-dihydro-[3,3′-bipyridin]-5-yl)-1,3-dimethyl-1H-pyrazole-4-carboxamide]",–,–,"IC50 (Table 2, 3 hours reaction): 3400 nM"
"Cc1ccc(NC(=O)c2cnnc(C3CC3)c2)cc1-c1cc(NCCO)nc(N2CCOCC2)c1 [Example 1048, 6-cyclopropyl-N-(3-(2-((2-hydroxyethyl)amino)-6-morpholinopyridin-4-yl)-4-methylphenyl)pyridazine-4-carboxamide]",–,1.55,–
"Cc1ncc(NC(=O)c2ccnc(C(C)(F)F)c2)cc1-c1cc(N2CCOCC2)c(=O)n(C)n1 [Example 678, 2-(1,1-difluoroethyl)-N-(6-methyl-5-(1-methyl-5-morpholino-6-oxo-1,6-dihydropyridazin-3-yl)pyridin-3-yl)isonicotinamide]",6.4,–,–
"Cc1ncc(NC(=O)c2ccnc(C(C)(F)F)c2)cc1-c1cc(N2CCOCC2)c(OCC(F)F)nn1 [Example 915, N-(5-(6-(2,2-difluoroethoxy)-5-morpholinopyridazin-3-yl)-6-methylpyridin-3-yl)-2-(1,1-difluoroethyl)isonicotinamide]",–,1.11,–
"Cc1ccc(NC(=O)c2ccnc(C3(C#N)CC3)c2)cc1-c1cc(NCCO)nc(N2CCOCC2)c1 [Example 1050, 2-(1-cyanocyclopropyl)-N-(3-(2-((2-hydroxyethyl)amino)-6-morpholinopyridin-4-yl)-4-methylphenyl)isonicotinamide]",–,1.31,–
"Cc1ccc(C(=O)Nc2cccnc2)cc1-c1cc(N2CCOCC2)c(=O)n(C)c1 [Example 433, 4-methyl-3-(1-methyl-5-morpholino-6-oxo-1,6-dihydropyridin-3-yl)-N-(pyridin-3-yl)benzamide]",–,–,"IC50 (Table 2, 3 hours reaction): 200 nM"
"CCn1c(N2CCOCC2)cc(-c2cc(NC(=O)c3ccnc(C(C)C)c3)ccc2C)cc1=O [Example 522, N-(3-(1-ethyl-6-morpholino-2-oxo-1,2-dihydropyridin-4-yl)-4-methylphenyl)-2-isopropylisonicotinamide]",2.5,–,–
"Cc1ccc(NC(=O)c2ccnc(C(C)(C)C#N)c2)cc1-c1nc2c(c(N3CCOCC3)n1)S(=O)(=O)CC2 [Example 855, 2-(2-cyanopropan-2-yl)-N-(4-methyl-3-(4-morpholino-5,5-dioxido-6,7-dihydrothieno[3,2-d]pyrimidin-2-yl)phenyl)isonicotinamide]",–,2.3,–
"Cc1ccc(NC(=O)c2cnnc(C(F)(F)F)c2)cc1-c1cc(OC2CCOCC2)nc(N2CCOCC2)c1 [Example 1155, N-(4-methyl-3-(2-morpholino-6-((tetrahydro-2H-pyran-4-yl)oxy)pyridin-4-yl)phenyl)-6-(trifluoromethyl)pyridazine-4-carboxamide]",–,0.66,–
"CCOc1ncc(-c2cc(NC(=O)c3cccc(C(F)(F)F)c3)ccc2C)nc1N1CCOCC1 [Example 538, N-(3-(5-ethoxy-6-morpholinopyrazin-2-yl)-4-methylphenyl)-3-(trifluoromethyl)benzamide]",1.2,–,–
"Cn1cc(-c2cc(NC(=O)c3cccc(C(F)(F)F)c3)cnc2Cl)cc(N2CCOCC2)c1=O [Example 407, N-(2-chloro-1′-methyl-5′-morpholino-6′-oxo-1′,6′-dihydro-[3,3-bipyridin]-5-yl)-3-(trifluoromethyl)benzamide]",–,–,"IC50 (Table 2, 3 hours reaction): 1.4 nM"
"Cc1ccc(NC(=O)c2ccc(C(O)CO)c(C(F)(F)F)c2)cc1-c1cc(N2CCOCC2)c(=O)n(C)c1 (stereo not shown) [Example 460, 4-(1,2-dihydroxyethyl)-N-(4-methyl-3-(1-methyl-5-morpholino-6-oxo-1,6-dihydropyridin-3-yl)phenyl)-3-(trifluoromethyl)benzamide]",15.9,–,–
"Cc1ccc(NC(=O)c2ccnc(C(C)C)c2)cc1-c1cc(N2CCOCC2)c2nccn2n1 [Example 842, 2-isopropyl-N-(4-methyl-3-(8-morpholinoimidazo[1,2-b]pyridazin-6-yl)phenyl)isonicotinamide]",1.3,–,–
"CCOc1ncc(-c2cc(NC(=O)c3ccnc(C(C)C)c3)cnc2C)cc1N1CCOCC1 [Example 252, N-(6′-ethoxy-2-methyl-5′-morpholino-[3,3′-bipyridin]-5-yl)-2-isopropylisonicotinamide]",–,–,"IC50 (Table 2, 3 hours reaction): 3.1 nM"
"Cc1ccc(NC(=O)c2ccnc(C(C)(C)F)c2)cc1-c1cc(OCCO)nc(N2CCOCC2)c1 [Example 1158, 2-(2-fluoropropan-2-yl)-N-(3-(2-(2-hydroxyethoxy)-6-morpholinopyridin-4-yl)-4-methylphenyl)isonicotinamide]",–,1.63,–
"Cc1ccc(NC(=O)c2cccc(OC(F)(F)F)c2)cc1-c1cc(N2CCOCC2)c(=O)n(C)c1 [Example 340, N-(4-methyl-3-(1-methyl-5-morpholino-6-oxo-1,6-dihydropyridin-3-yl)phenyl)-3-(trifluoromethoxy)benzamide]",–,–,"IC50 (Table 2, 3 hours reaction): 36.4 nM"
"CCNc1nc(-c2cc(NC(=O)c3ccnc(S(C)(=O)=O)c3)ccc2C)cc(N2CCOCC2)n1 [Example 702, N-(3-(2-(ethylamino)-6-morpholinopyrimidin-4-yl)-4-methylphenyl)-2-(methylsulfonyl)isonicotinamide]",3,–,–
"COc1ncc(-c2cc(NC(=O)c3ccnc(C(F)(F)F)c3)cnc2C)cc1N1CCOCC1 [Example 324, N-(6′-methoxy-2-methyl-5′-morpholino-[3,3′-bipyridin]-5-yl)-2-(trifluoromethyl)isonicotinamide]",–,–,"IC50 (Table 2, 3 hours reaction): 7.4 nM"
"Cc1ncc(NC(=O)c2ccnc(C(C)(C)O)c2)cc1-c1cc(N2CCOCC2)c(OC2CCOCC2)nn1 [Example 634, 2-(2-hydroxypropan-2-yl)-N-(6-methyl-5-(5-morpholino-6-((tetrahydro-2H-pyran-4-yl)oxy)pyridazin-3-yl)pyridin-3-yl)isonicotinamide]",17.1,–,–
